In assay [1] the test system is MBP-SUFU-FL, mutation of Tyr147. Description: Microscale thermophoresis, MBP-SUFU-FL mutated at Tyr147. Type of assay: binding, human. Conditions: mutation of Tyr147 in MBP-SUFU-FL, data not shown. How it is done: (§1) A 5-FAM-labelled peptide (FAM-GLI1p) comprising residues 115–131 of GLI1 (Supplementary Table S1b) was synthesized by Pepceuticals Ltd. A titration series of each recombinant protein was prepared by serial 1:1 dilutions in MST buffer (50 mM Tris–HCl pH 7.6, 150 mM NaCl, 10 mM MgCl2, 0.05% Tween-20) and mixed in a 1:1 ratio with FAM-GLI1p to give final concentrations of 50 nM FAM-GLI1p with MBP-SUFU constructs in the ranges 14.2–29 070 and 54–110 500 nM. Reactions were aspirated into glass capillaries and the thermophoretic movement of FAM-GLI1p was monitored using a Monolith NT.115 instrument (NanoTemper Technologies; Wienken et al., 2010[▶]), with a laser on for 30 s and off for 5 s and a laser power/voltage of 20% for MBP-SUFU-FL and the MBP-SUFU-FL mutants, 40% for MBP-SUFU-Δ and 80% for MBP-SUFU-SH. Fluorescence was measured before laser heating (F Cold) and after 30 s of laser-on time (F Hot). The normalized fluorescence F Hot/F Cold reflects the concentration ratio of labelled molecules. F Hot/F Cold was plotted directly and multiplied by a factor of […], yielding a relative change in fluorescence per thousand. K d was calculated from three independent thermophoresis measurements using NanoTemper software (NanoTemper Technologies). […]

In assay [2] the test system is MBP-SUFU-FL, mutation of Glu376. The assay is described as follows: Microscale thermophoresis, MBP-SUFU-FL mutated at Glu376. Type of assay: binding, human. The note with it: mutation of Glu376 in MBP-SUFU-FL, data not shown. How it is done:
as §1
In general terms: In MST a laser heats a spot of the sample, and binding alters the fluorescence response.

The values that follow come from publication PMC3852661, “Structural basis of SUFU–GLI interaction in human Hedgehog signalling regulation” (Acta Crystallographica Section D: Biological Crystallography, 2013).

Take “GLI1p: human GLI1-derived peptide; residues 115–131, containing the highly conserved SYGH motif (TSPGGSYGHLSIGTMSP)”: the detectable binding result in assay [1] and in assay [2] was “abolished detectable binding” throughout.
